Measurements reported in US20240408064A1, “RAS INHIBITORS, COMPOSITIONS AND METHODS OF USE THEREOF” (GENETOLEAD INC., priority 2021, published 2024).

What was measured:
HRas^G12V [1] = molecular target: T1, HRas^G12V (Homo sapiens (Human), UniProt P01112, G12V); experiment: 19F DLB (ligand-observed 19F NMR) score; type: binding; set-up: scale not given here
Description: (§1) All NMR experiments were collected using 3 mm NMR tubes on a 600 MHz Bruker Avance III spectrometer equipped with a QCI helium cryoprobe and a SampleJet sample changer. The buffer used for NMR experiments was 25 mM sodium phosphate pH 7.4, 150 mM NaCl, 5 mM MgCl2, 1 mM TCEP-d16, 10% D2O. Data were processed using Bruker TopSpin.
(§2) Since the fragment library was curated using phosphate buffer, 25 mM sodium phosphate pH 7.4, 150 mM NaCl, 5 mM MgCl2, 1 mM TCEP-d16, 10% D2O Fresh TCEP was used for experiments. Screening was performed using ^1H-decoupled 1D ^19F experiment Bruker experiment (zgfhigqn.2) with 64 scans and a relaxation delay of 5 seconds. 50 μM HRas^G12V and 240 μM of each fragment in pools (mixtures) were used.
Hit confirmation was performed using the same ^19F experiment as the screen. Ligand-observed 1D ^1H, protein-observed 1D ^1H, ^1H T2-CPMG as well as Saturation Transfer Difference (STD) experiments were also run on the same samples. Ligand-observed 1D ^1H was run using the standard Bruker sequence with excitation sculpting (zgesgp) with a relaxation delay of 10 seconds and 16 scans per spectrum. Protein-observed 1D ^1H was performed using the same sequence with a relaxation delay of 1 second and 256 scans in order to increase the signal-to-noise of the protein resonances, while keeping the experimental time relatively short. The ^1H T2-CPMG experiment employed a modified version of the Bruker 1D ^1H zgesgp experiment with the addition of a CPMG pulse train after the first 90° excitation pulse. Total duration for each spin echo was fixed at 1 ms (τ=500 μs), while the number of echoes in the pulse train was varied according to the total time (T). The number of scans for each spectrum was 4 and eight delay times were run on each sample, ranging from 1 ms to 800 ms. […]

HRas^G12V [2] = molecular target: T1, HRas^G12V; experiment: Overall binding/activity in the various assays (NMR consensus binding)
Description: as §2
(§3) Hit confirmation was performed using the same ^19F experiment as the screen. Ligand-observed 1D ^1H, protein-observed 1D ^1H, ^1H T2-CPMG as well as Saturation Transfer Difference (STD) experiments were also run on the same samples. Ligand-observed 1D ^1H was run using the standard Bruker sequence with excitation sculpting (zgesgp) with a relaxation delay of 10 seconds and 16 scans per spectrum. Protein-observed 1D ^1H was performed using the same sequence with a relaxation delay of 1 second and 256 scans in order to increase the signal-to-noise of the protein resonances, while keeping the experimental time relatively short. The ^1H T2-CPMG experiment employed a modified version of the Bruker 1D ^1H zgesgp experiment with the addition of a CPMG pulse train after the first 90° excitation pulse. Total duration for each spin echo was fixed at 1 ms (τ=500 μs), while the number of echoes in the pulse train was varied according to the total time (T). The number of scans for each spectrum was 4 and eight delay times were run on each sample, ranging from 1 ms to 800 ms.
STD experiments consisted of two independent spectra with offsets of 0 ppm (on resonance) and −20 ppm (off resonance). […] 160 scans were acquired for each spectrum.
The results obtained with the compounds in the various assays described above are depicted in Table 21.
Because of its power to probe the intrinsically weak interactions (Kd) between targets and low-molecular weight fragments, NMR fragment-based lead discovery (FBLD) is a very useful biophysical method in early stage drug discovery, especially for challenging target proteins; including those with shallow binding pockets. Since FBLD screens are performed using low-molecular weight compounds (fragments) with lower structural complexity, the same chemical space can be covered using a smaller number of drug-like fragments versus use of large libraries of higher-molecular weight lead-like compounds as in high throughput screening (HTS) campaigns. Therefore, FBLD has a much higher hit rate than HTS using only several hundred to several thousand compounds in comparison with approximately 1 million compounds for HTS. Also, the small size of the compounds screened in FBLD means a better chance to fully match the interactions with small or transient pockets within the target protein, where these less tractable pockets cannot be accessed with standard classical HTS methods. […] We expect this methodology to be more advantageous than classical HTS methods for expediting the time from hit to lead (H2L) and allows for rapid access to high quality leads with lower attrition rates in subsequent lead optimization (LO) campaigns toward pre-clinical candidate selection. FBLD screening by NMR involves a “consensus binding” approach where several distinct NMR experiments (DLB, STD, CPMG) are applied along with a free-state aggregation detection method (T2-CPMG) to rank the compounds for their affinity to the receptor (HRAS in this case) whilst simultaneously monitoring the solution behavior and critical quality attributes of each compound. The latter helps to eliminate artifact binders which are highly problematic. We performed a fluorine screen involving 461 compounds that were derived from a highly curated fragment library. Moreover, two-dimensional ^15N HSQC NMR was also used to validate ligand-binding sites on the target protein. In addition, we employed protein-detected biophysical measurements were employed to determine fragment binding affinities to the target protein (Kd) by HSQC NMR. […]

HRas^G12V [3] = molecular target: T1, HRas^G12V; experiment: 19F T2-CPMG NMR score; type: binding
Description: as §1, §2, §3
Because of its power to probe the intrinsically weak interactions (Kd) between targets and low-molecular weight fragments, NMR fragment-based lead discovery (FBLD) is a very useful biophysical method in early stage drug discovery, especially for challenging target proteins; including those with shallow binding pockets. Since FBLD screens are performed using low-molecular weight compounds (fragments) with lower structural complexity, the same chemical space can be covered using a smaller number of drug-like fragments versus use of large libraries of higher-molecular weight lead-like compounds as in high throughput screening (HTS) campaigns. Therefore, FBLD has a much higher hit rate than HTS using only several hundred to several thousand compounds in comparison with approximately 1 million compounds for HTS. Also, the small size of the compounds screened in FBLD means a better chance to fully match the interactions with small or transient pockets within the target protein, where these less tractable pockets cannot be accessed with standard classical HTS methods. […] We expect this methodology to be more advantageous than classical HTS methods for expediting the time from hit to lead (H2L) and allows for rapid access to high quality leads with lower attrition rates in subsequent lead optimization (LO) campaigns toward pre-clinical candidate selection. FBLD screening by NMR involves a “consensus binding” approach where several distinct NMR experiments (DLB, STD, CPMG) are applied along with a free-state aggregation detection method (T2-CPMG) to rank the compounds for their affinity to the receptor (HRAS in this case) whilst simultaneously monitoring the solution behavior and critical quality attributes of each compound. The latter helps to eliminate artifact binders which are highly problematic. We performed a fluorine screen involving 461 compounds that were derived from a highly curated fragment library. Moreover, two-dimensional ^15N HSQC NMR was also used to validate ligand-binding sites on the target protein. […]

T1 sequence (P01112 1-166 G12V): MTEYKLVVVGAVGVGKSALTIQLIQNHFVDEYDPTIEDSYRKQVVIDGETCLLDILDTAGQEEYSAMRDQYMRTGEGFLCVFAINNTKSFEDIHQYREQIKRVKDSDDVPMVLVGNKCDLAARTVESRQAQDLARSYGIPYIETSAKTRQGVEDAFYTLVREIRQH

| Compound | 19F DLB Score (HRas^G12V [1]) | Binding to HRas^G12V (in words) (HRas^G12V [2]) | 19F T2-CPMG Score (HRas^G12V [3]) |
| --- | --- | --- | --- |
| CC1(C)OC(=O)C(C(c2ccc(F)cc2F)c2c[nH]c3cc(F)ccc23)C(=O)O1 (stereo not shown) [Compound 11058] | Non conclusive | low or no binding | – |
| O=C(O)Cc1c[nH]c2c(Cl)cccc12 [Compound 11069] | – | low or no binding | – |
| CCOC(=O)C(Cc1c[nH]c2ccccc12)NC(=O)Cc1c[nH]c2cc(F)ccc12 (stereo not shown) [Compound 10112] | – | low or no binding | – |
| CCOC(=O)CC(c1ccccc1F)c1c[nH]c2cc(F)ccc12 (stereo not shown) [Compound 11045] | 16.69 | low or no binding | – |
| Cc1ccc(NC(=O)Cc2c[nH]c3cc(F)ccc23)cc1Cl [Compound 10032] | – | low or no binding | – |
| CN(C)CC(=O)Nc1cccc(NC(=O)Cc2c[nH]c3cccc(Br)c23)c1 [Compound 11067] | – | low or no binding | – |
| COc1ccccc1C(=O)NCCc1c[nH]c2cc(F)ccc12 [Compound 10043] | – | low or no binding | – |
| CCOC(=O)c1cccc(NC(=O)Cc2c[nH]c3cc(F)ccc23)c1 [Compound 10019] | – | low or no binding | – |
| Cc1c(Cl)cc(NC(=O)Cc2c[nH]c3cc(F)ccc23)cc1Cl [Compound 10022] | – | low or no binding | – |
| CN(C)CC(=O)Nc1cccc(NC(=O)Cc2c[nH]c3cc(Cl)ccc23)c1 [Compound 11068] | – | low or no binding | – |
| CN(C)CC(=O)Nc1cccc(NC(=O)Cc2c[nH]c3cccc(Cl)c23)c1 [Compound 11071] | – | low or no binding | – |
| COc1ccc(NC(=O)Cc2c[nH]c3cc(F)ccc23)cc1OC [Compound 10033] | – | low or no binding | – |
| CC(=O)Nc1cccc(C(=O)N2CCC(c3c[nH]c4cc(F)ccc34)C2)c1 (stereo not shown) [Compound 11023] | 3.07 | – | 16.39 |
| O=C1CCCN(C(=O)Cc2c[nH]c3cc(F)ccc23)C1 [Compound 10109] | 3.45 | – | 15.4 |
| CCOC(=O)C1CCN(C(=O)Cc2c[nH]c3cc(F)ccc23)CC1 [Compound 10132] | 2.01 | – | 13.29 |
| COC(=O)c1ccc(NC(=O)Cc2c[nH]c3cc(F)ccc23)cc1Cl [Compound 10017] | – | low or no binding | – |

| Compound | 19F DLB Score (HRas^G12V [1]) | Binding to HRas^G12V (in words) (HRas^G12V [2]) | 19F T2-CPMG Score (HRas^G12V [3]) |
| --- | --- | --- | --- |
| O=C(C1CC1)C1CN(C(=O)Cc2c[nH]c3cc(F)ccc23)C1 [Compound 10115, 1-(3-(cyclopropanecarbonyl)azetidin-1-yl)-2-(6-fluoro-1H-indol-3-yl)ethan-1-one] | 1.89 | – | 12.42 |
| O=C(NCCc1c[nH]c2cc(F)ccc12)[C@H]1CCCO1 [Compound 10013] | 2.09 | – | 12.62 |
| CCOC(=O)[C@@H]1CCCCN1C(=O)Cc1c[nH]c2cc(F)ccc12 [Compound 10126] | 4.22 | – | 13.7 |
| CCOC(=O)[C@H]1CCCCN1C(=O)Cc1c[nH]c2cc(F)ccc12 [Compound 10128] | 2.85 | – | 13.67 |
| O=C(Cc1c[nH]c2cc(F)ccc12)N1CCCC(O)C1 (stereo not shown) [Compound 10120] | 2.34 | – | 13.94 |
| CC(=O)N[C@H]1CCCN(C(=O)Cc2c[nH]c3cc(F)ccc23)C1 [Compound 10139, (S)—N-(1-(2-(6-fluoro-1H-indol-3-yl)acetyl)piperidin-3-yl) acetamide] | 1.93 | – | 4.54 |
| O=C(CN1CCC1)c1c[nH]c2cc(F)ccc12 [Compound 10085, 2-(azetidin-1-yl)-1-(6-fluoro-1H-indol-3-yl) ethan-1-one] | 2.43 | – | 21.45 |
| O=C(Cc1c[nH]c2cc(F)ccc12)N1CCO[C@@H](CO)C1 [Compound 10147, (R)-2-(6-fluoro-1H-indol-3-yl)-1-(2-(hydroxymethyl)morpholino) ethan-1-one] | 2.3 | – | 19.87 |
| COCCOC1CN(C(=O)Cc2c[nH]c3cc(F)ccc23)C1 [Compound 10103, 2-(6-fluoro-1H-indol-3-yl)-1-(3-(2-methoxyethoxy)azetidin-1-yl) ethan-1-one] | 1.62 | – | 7.82 |
| CC1CN(C)CCC1NC(=O)Cc1c[nH]c2cc(F)ccc12 (stereo not shown) [Compound 10099, N-(1,3-dimethylpiperidin-4-yl)-2-(6-fluoro-1H-indol-3-yl)acetamide] | 1.4 | – | 11.85 |
| CN1CCN(C(=O)Cc2c[nH]c3cc(F)ccc23)CC1=O [Compound 10146] | 1.56 | – | 9.75 |
| O=C(NCCc1c[nH]c2cc(F)ccc12)c1ccc(F)cc1 [Compound 10039] | 0.96 | – | 20.33 |
| CN1CCC(NC(=O)Cc2c[nH]c3cc(F)ccc23)C(C(=O)O)C1 (stereo not shown) [Compound 10117, 4-(2-(6-fluoro-1H-indol-3-yl)acetamido)-1-methylpiperidine-3-carboxylic acid] | 1.54 | – | 10.14 |
| O=C(c1cccc(F)c1)N1CCC(c2c[nH]c3cc(F)ccc23)C1 (stereo not shown) [Compound 11022] | 3.43 | – | 5.71 |
| N#CC(C(=O)N[C@@H](Cc1ccc(O)cc1)C(=O)O)c1c[nH]c2cc(F)ccc12 (stereo partly shown) [Compound 11031] | 1.97 | – | 38.39 |
| CN(C)CC(=O)Nc1cccc(NC(=O)Cc2c[nH]c3c(Cl)cccc23)c1 [Compound 11070] | – | low or no binding | – |
